{"source": "patent US20200222474A1", "about": "“COMPOSITIONS AND METHODS FOR INCREASING PHYTOCHEMICAL BIOAVAILABLITY AND BIOACTIVITY” (North Carolina State University, priority 2017, published 2020)", "key": {"[1]": {"system": "NCK2424 (ΔLBA0726)", "assay": "Phenotypic growth analysis of deletion mutant (phospho-β-glucosidase)", "type": "cell-based, Lactobacillus acidophilus", "conditions": "compared with background Δupp strain", "method": "(§1) Phenotypic growth assays were performed using 1% (v/v) overnight cultures of L. acidophilus strains (Table 2) and other Lactobacillus species (Table 3) grown on SDM supplemented with 1% (w/v) glucose to inoculate 200 μL of SDM supplemented with 1% (w/v) of the examined carbohydrate (0.5% in the case of esculin) in 96-well microplate wells (Corning Costar, Corning, N.Y., USA) in duplicate or triplicate wells, respectively. The microplates were sealed with clear adhesive film, incubated at 37° C. in a Fluostar Optima microplate reader (BMG Labtech, Cary, N.C., USA), and the cell optical density (OD600) was monitored for 30 hours.\nConstruction of gene deletion mutants. The L. acidophilus NCFM genes LBA0225 and LBA0726, both encoding P-Bgl of glycoside hydrolase family 1 (GH1) enzymes in addition to the LBA0227 and LBA0725 genes encoding an EIIC and an EIICBA components of two PTS systems, respectively, were deleted using the upp-based counterselectable gene replacement system. Briefly, in-frame deletions were constructed by amplifying 650-750 bp of the up- and downstream flanking regions of the deletion targets with two primer pairs (e.g., LBA0225A/LBA0225B and LBA0225C/LBA0225D; Table 4). The resulting purified products were joined by splicing using overlap extension PCR (SOE-PCR63) and amplified to establish the deletion alleles. The SOE-PCR products, that include flanking restriction enzyme sites, were cloned within the BamHI and SacI/EcoRI sites of the pTRK935 integration vector and transformed into E. coli EC101. […]\n(§2) To establish the functional significance of these two loci, single deletions of each PTS EII and P-Bgl gene, and a double deletion of both P-Bgl genes were constructed using the upp-based counter-selectable gene replacement system (Table 2) and the growth phenotypes of the mutant strains were analyzed (FIG. 3). […]"}, "[2]": {"system": "NCK2426 (ΔLBA0225ΔLBA0726)", "assay": "Phenotypic growth analysis of double phospho-β-glucosidase mutant", "type": "cell-based, Lactobacillus acidophilus", "conditions": "compared with background Δupp strain", "method": "as §1\nConstruction of gene deletion mutants. The L. acidophilus NCFM genes LBA0225 and LBA0726, both encoding P-Bgl of glycoside hydrolase family 1 (GH1) enzymes in addition to the LBA0227 and LBA0725 genes encoding an EIIC and an EIICBA components of two PTS systems, respectively, were deleted using the upp-based counterselectable gene replacement system. […]\nas §2"}}}
{"molecule": "N#C[C@H](O[C@@H]1O[C@H](CO[C@@H]2O[C@H](CO)[C@@H](O)[C@H](O)[C@H]2O)[C@@H](O)[C@H](O)[C@H]1O)c1ccccc1", "note": "[Amygdalin]", "values": [{"measurement": "growth of the ΔLBA0726 mutant (P-Bgl)", "setting": "[1]", "value": "severe reduction in growth"}, {"measurement": "growth of the double P-Bgl mutant (LBA0225/LBA0726)", "setting": "[2]", "value": "abolished"}]}
